Reference: article PMC13376213, “Systematic discovery of motif-based interactions of the auxiliary domains of USP family deubiquitinases” (Nature Communications, 2026)
Like-named read-outs stand apart in the source and are kept apart here. Ends that are not written are not given here.

Experiments:
[1] = target: T1, USP20 zf-UBP domain (Homo sapiens, UniProt Q9Y2K6); test: FP-monitored affinity measurements, USP20 zf-UBP; format: binding
T1 construct: USP20_UBP; Q9Y2K6; zf-UBP; 99; 6xHis-GST (N, cleaved yes); made in house; host or cells: Escherichia coli BL21-Gold (DE3)
T1 sequence (Q9Y2K6 4-99): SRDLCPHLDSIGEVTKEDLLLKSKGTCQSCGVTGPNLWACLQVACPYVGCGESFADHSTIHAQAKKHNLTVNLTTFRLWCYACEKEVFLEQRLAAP
Method: (§3) The measurements were performed at room temperature in a non-binding black half area 96-well plate (Corning) with a total volume of 50 μL per well. […] All measurements were performed in three technical replicates. […] The saturation curves were fitted to the quadratic equation, and the displacement curves were fitted to a sigmoidal dose-response equation as described previously[68].

[2] = target: T2, USP20 DUSP2 domain (Homo sapiens, UniProt Q9Y2K6); test: FP-monitored affinity measurements, USP20 DUSP2; format: binding; settings: USP20_DUSP2; FP displacement by unlabelled peptide; read-out: KD
T2 construct: USP20_DUSP2; Q9Y2K6; DUSP2; 776; 894; 6xHis-GST (N, cleaved yes); made in house; host or cells: Escherichia coli BL21-Gold (DE3)
T2 sequence (Q9Y2K6 with tags, fused parts or gaps): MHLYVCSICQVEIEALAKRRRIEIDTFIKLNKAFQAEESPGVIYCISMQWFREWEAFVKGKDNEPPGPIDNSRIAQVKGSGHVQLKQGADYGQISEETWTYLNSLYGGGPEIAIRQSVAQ
Method: (§1) Proteins were expressed in Escherichia coli (E.coli) BL21-Gold (DE3) bacteria. The cDNAs encoding N-terminal 6-histidine-glutathione S-transferase tagged (6xHis-GST), 6xHis-tagged or GST-tagged protein domains in pETM33, pETM11, pGEX6P1 expression vectors respectively, were obtained from Genescript or kindly provided by MRC-PPU (Suppl. Data 1) The bacteria were transformed with the plasmid and grew at 37 °C in 2YT (5 g/L NaCl, 16 g/L tryptone and 10 g/L yeast extract) supplemented with Kanamycin (30 μg/mL) until reaching an OD600 of 0.7. Protein expression was induced with 0.3 mM isopropyl β-D-1 thiogalactopyranoside (IPTG) for 18 h at 18 °C while shaking. For zinc-finger domains, 50 μM of ZnSO4 was added during expression. The bacterial cultures were pelleted for 15 minutes at 4000 x g at 4 °C and stored at −20 °C until purification. The pellets were resuspended in lysis buffer (1× phosphate-buffered saline (PBS), 0.5 % Triton-X, 5 mM MgCl2, 10 μg/mL lysozyme, cOmplete^TM EDTA-free protease inhibitor cocktail (Roche), 10 μg/mL DNAseI) and incubated for 1 h shaking at 4 °C. […] The supernatant was incubated with glutathione (GSH) Sepharose (Cytiva) or Ni2+ Sepharose (Cytiva) for 1 h at 4 °C while shaking. The beads with the bound protein were washed with 1x PBS and eluted with 10 mM reduced glutathione in 50 mM Tris pH 8.0. For fluorescence polarization experiments, the proteins were not eluted from the beads, and the 6xHis-GST tag was cleaved overnight on GSH Sepharose beads at 4 °C while shaking with PreScission Protease in cleavage buffer (50 mM Tris pH 7.5, 150 mM NaCl, 1 mM DTT). The sample containing the cleaved domain was separated from the tag and protease and buffer-exchanged to 50 mM sodium phosphate buffer pH 7.4 with 1 mM DTT using a PD-10 desalting column (Cytiva). The purity and size of the proteins were analyzed by SDS-PAGE electrophoresis.
(§2) The measurements were performed at room temperature in a non-binding black half area 96-well plate (Corning) with a total volume of 50 μL per well. Peptides were obtained from GeneCust (France) with >95% purity. FITC-labeled peptides (N-terminally FITC-labeled without spacer and C-terminally amidated) were dissolved in dimethyl sulfoxide (DMSO), and unlabeled peptides (N-terminally acetylated and C-terminally amidated) were dissolved in 50 mM phosphate buffer pH 7.4. Saturation measurements were performed using a serial dilution of the protein domains in phosphate buffer (25 μL) and the addition of 10 nM FITC-labeled peptide (in phosphate buffer supplemented with 2 mM DTT) (25 μL). […] All measurements were performed in three technical replicates. The data were analyzed using GraphPad Prism version 9.2.0 for MacOS (GraphPad Software, San Diego, California USA, www.graphpad.com). The saturation curves were fitted to the quadratic equation, and the displacement curves were fitted to a sigmoidal dose-response equation as described previously.

[3] = target: T3, USP33 DUSP2 domain (Homo sapiens, UniProt Q8TEY7); test: FP-monitored affinity measurements, USP33 DUSP2; format: binding
T3 construct: USP33_DUSP2; Q8TEY7; DUSP2; 806; 921; 6xHis-GST (N, cleaved yes); made in house; host or cells: Escherichia coli BL21-Gold (DE3)
T3 sequence (Q8TEY7 with tags, fused parts or gaps): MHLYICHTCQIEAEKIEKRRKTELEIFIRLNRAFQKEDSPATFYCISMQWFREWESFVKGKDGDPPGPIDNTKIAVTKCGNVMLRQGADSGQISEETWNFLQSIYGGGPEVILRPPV
Method: as §1, §2

[4] = target: T2, USP20 DUSP2 domain; test: Peptide SPOT array, USP20 DUSP2; format: binding; settings: for Average: peptide SPOT array intensity minus background, mean of 2 replicas; for Average / Normalize to peptide with higher intensity %: sheet S5A; for Normalize to higher intensity (%) / Normalize to peptide with higher intensity %: peptide SPOT array; for Normalize to higher intensity (%): USP20 DUSP2, average normalised to the highest intensity (ARNTL2 = 100); for Normalize to peptide with higher intensity %: average normalized to the peptide with highest intensity (ARNTL2 = 100);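 as to all read-outs here: GST-tagged domain probed overnight at 4 °C on peptides made on cellulose membranes, bound protein detected via HRP-coupled anti-GST antibody, spot intensity from image analysis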
Method: (§4) Peptides were synthesized on cellulose membranes with standard Fluoroenylmethylox-ycarbonyl (Fmoc) chemistry using a Multipep automated synthesizer at INTAVIS (Tübingen, Germany) or ordered from JPT (PepSpots). The membranes were activated with methanol for 5 min and washed three times for 5 min with TBST (50 mM Tris, 137 mM NaCl, 2.7 mM KCl, pH 8.0, 0.05% Tween-20). The membranes were incubated with blocking buffer (5% skim milk powder in TBST) for 2 h at room temperature while shaking. The membranes were incubated with the GST-tagged protein diluted at the desired concentration in blocking buffer and incubated overnight at 4 °C while shaking. The membrane was rinsed 3 times with TBST and incubated with HRP-conjugated anti-GST antibody (Cytiva, RPN1236; 1:3000 dilution) in blocking buffer for 1 h at 4 °C while shaking. […] The images were analyzed in Fiji (ImageJ2 version 2.9.0).

[5] = target: T3, USP33 DUSP2 domain; test: Peptide SPOT array, USP33 DUSP2; format: binding; settings: average normalised to the highest intensity (CCDC88B = 100)
Method: as §4

[6] = target: T4, USP33 zf-UBP domain (Homo sapiens, UniProt Q8TEY7); test: FP-monitored affinity measurements, USP33 zf-UBP; format: binding
T4 construct: USP33_UBP; Q8TEY7; zf-UBP; 36; 130; 6xHis-GST (N, cleaved yes); made in house; host or cells: Escherichia coli BL21-Gold (DE3)
T4 sequence (Q8TEY7 with tags, fused parts or gaps): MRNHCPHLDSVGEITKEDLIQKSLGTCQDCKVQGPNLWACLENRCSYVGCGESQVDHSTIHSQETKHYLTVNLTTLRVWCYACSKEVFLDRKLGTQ
Method: as §3

[7] = test system: FLAG-USP33; test: IP-MS of FLAG-USP33 and variants vs empty vector; format: cell-based, human; settings: IP-MS
Method: For transfection, 1x10^6 HEK293 cells were seeded in 10 cm dishes with DMEM, 10% FBS, 1% L-G (without antibiotic) medium, incubated at 37 °C, with 5 % CO2 for 24 h. Cells were transfected with a transfection mix containing […] of Opti-MEM (Thermo Fisher Scientific), 20 μL of PEI stock (1 mg/mL) and […] of the desired cDNA. For co-transfection, 2.5 μg of DNA of each plasmid was used. The mix was vortexed for 15 s and incubated at room temperature for 15–20 min. The transfection mix was added to the dish and gently mixed. Plates were incubated at 37 °C for 36–48 h before harvesting. For USP33 constructs, 5 μM Bortezomib (proteasome inhibitor) was added 4 hours before harvesting the cells.
FLAG fusion proteins were immunoprecipitated from HEK293 cells transfected with plasmids encoding the protein of interest using the anti-FLAG M2 affinity gel from Sigma-Aldrich. Cell pellets were lysed with 100–200 μL/per dish lysis buffer (Pierce RIPA buffer, 1X protease inhibitor (Roche), 50 unit/μL of Benzonase Nuclease) rotating at 4 °C for 30–45 min. […] The cell lysate was clarified by centrifugation at 17,000 x g, at 4 °C for 12 min, and the supernatant was transferred to a clean, pre-chilled low-binding Eppendorf tube. […] The IP samples were centrifuged at 6500 x g at 4 °C for 30 s. The supernatant containing the unbound proteins was transferred to a clean tube. The resin was washed three times with 500 μL of TBS, centrifuged at 6500 x g at 4 °C for 30 s. The bound FLAG fusion protein was eluted with 100 μL of 150 ng/μL 3X FLAG peptide (Sigma) in TBS and incubated in the cold room for 1 h or overnight. The tube was centrifuged at 6500 x g at 4 °C for 30 s; the eluted proteins were transferred to a clean tube. The eluted proteins were prepared for analysis by western blot or Mass Spectrometry.
Immunoprecipitation (IP) was carried out as described above; four technical replicates of each IP condition were performed, and the empty vector was used as a negative control. The eluted protein was processed following the Strap-micro protocol (Protifi). The IP elution containing 1–100 μg protein was 1:1 mixed with 2X lysis buffer (10% SDS, 100 mM TEAB pH 8.5). […] Samples were vortexed, mixed with 165 μL of 100 mM TEAB in 90% methanol, and passed through an S-Trap micro column at 4000 g for 30 s to trap the proteins. The column was washed with 150 μL of 100 mM TEAB in 90% methanol (at 4,000 x g for 30 seconds) three times. The S-Trap column was centrifuged again and transferred to a clean 2 mL tube for digestion with 20 μL of digestion buffer (1 μg trypsin per 10 μg sample in 50 mM TEAB), at 37 °C overnight in a thermomixer without shaking. The digested peptides were eluted with […] of 50 mM TEAB in water, […] of 0.2 % formic acid in water, and […] of 50 % acetonitrile in water, centrifuging at 4000 x g for 1 min each time. The three elutions were pooled in a low-binding tube, placed on dry ice until frozen, dried in a SpeedVac vacuum (Thermo Scientific), and proceeded with the LCMS analysis.
Eluted peptides were resuspended in water supplemented with 0.015% dodecyl maltoside and 0.1% formic acid and were injected on a Vanquish Neo UHPLC System operating in trap and elute mode coupled to an Orbitrap Astral Mass Spectrometer (Thermo Fisher Scientific). […] Eluted peptides were analyzed using data-independent acquisition mode on the mass spectrometer.
Peptides were searched against the Uniprot Swissprot Human database (released on 02/01/2023) supplemented with the USP20 and USP33 mutants using DiaNN (v1.9.0)[62] operating in library-free mode. Data filtering and statistical analysis were carried out in Python (v3.9.0) using the packages pandas, numpy, sklearn, scipy, rpy2, Plotnine, and Plotly and R (v4.4.3) using the package limma.
Protein groups identified with a single peptide or quantified in fewer than three replicates in at least 1 condition were filtered out. […]

[8] = USP33_DUSP2, FP displacement by unlabelled peptide, read-out: KD

Compound	Kd [2]	Kd [3, 8]	Average [4]	Normalize to higher intensity (%) [4]	Normalize to peptide with higher intensity % [4]	Normalize to higher intensity (%) [5]	other results
YAQSKTQLEVRPV [ROBO1]	–	–	–	–	–	–	Kd ([1]; USP20_UBP, FP displacement by unlabelled peptide, read-out: KD): ~81.6 µM
QLEEELFQLRQGPAGL [CCDC88B]	22.4 µM	40.1 µM	62.4217	34.95%	34.9541%	100%	–
EKVKRRLDLDID [CCP110_582-593]	–	–	–	–	–	–	Kd ([1]; read-out: KD, USP20 zf-UBP): > 500 µM; Kd ([6]; read-out: KD, USP33 zf-UBP): > 250 µM
CC(=O)N[C@@H](Cc1ccc(O)cc1)C(=O)N[C@@H](CCCCN)C(=O)N[C@@H](CCC(N)=O)C(=O)N[C@@H](CCC(N)=O)C(=O)N[C@@H](CCCNC(=N)N)C(=O)N[C@@H](CO)C(=O)N[C@@H](CC(=O)O)C(=O)N[C@@H](CC(C)C)C(=O)N[C@@H](C)C(=O)NCC(=O)N1CCC[C@H]1C(=O)N[C@H](C(=O)N[C@@H](CC(=O)O)C(N)=O)C(C)C [APBA2_N334A]	–	–	–	–	–	–	Kd ([6]; USP33_UBP, FP displacement by unlabelled peptide, read-out: KD): 112 µM
Ac-PYIPMDGEDFQLSPICPE-NH2 [HIF2A]	~235 µM	~1180 µM	–	–	–	–	–
IPMDDDFQLRSFDQLS [HIF1A]	18.7 µM	1.5 µM	35.4167	19.83%	19.8322%	69.9644%	–
NBAS	–	–	–	–	–	–	log2_FC ([7]; FLAG-USP33-ΔDUSP2 vs EV, comparison bh_2 Sample_Limma_ImpMedInt_USP33_DUSP2_domain/EV): 2.843; log2_FC ([7]; FLAG-USP33-ΔUBP vs EV, comparison bh_2 Sample_Limma_ImpMedInt_USP33_UBP_domain/EV): 2.886; log2_FC ([7]; FLAG-USP33 UBP mutant vs EV, comparison USP33_E86K_D90R/EV, Limma): 2.804
Ac-SDDDLAWNIAPQGLQ-NH2 [GPR137B348-362]	10.2 µM	~228 µM	1.607	0.8997%	0.8997%	-9.797%	Kd ([3]; competitive FP: unlabeled peptide (N-acetylated, C-amidated) against protein with 10 nM FITC-labeled peptide, 50 mM phosphate pH 7.4, room temperature, technical triplicate, read-out: KD, USP33 DUSP2): > 200 µM
